Results taken from US9624288B2, “Engineered receptors and their use” (University of Pittsburgh—Of the Commonwealth System of …, priority 2012, dated 2017).

Target: T1, EGRAFY mutant (R91A, F188Y; SEQ ID NO: 15) (Dickeya chrysanthemi, UniProt P0C7B7, F187Y/INS163G/R91A)
T1 construct: expressed in transfected cells; host or cells: Xenopus laevis oocytes
Experiment: Two-electrode voltage clamp, amine agonist activation of the EGRAFY mutant in oocytes
Format: cell-based, Erwinia chrysanthemi / human
Protocol: For pH measurements, 10 mM MES was added. […] Non-linear regressions were performed using Prism software (Graphpad). […] (FIG. 2).

**Q.** With CCCN [propylamine] as the molecule, how does the EC50 read?
**A.** Its EC50 is 1.9 ± 0.2 µM.
